Data set [1] can be described thus: Metabolic stability in human hepatocytes. Type of data set: in vitro ADME. Conditions: cryopreserved human hepatocytes, donor 1, 10 μM, read-out: stability in human hepatocytes (% remaining after 120 min).
A further data set has as its target T1, BRD2(1) (Homo sapiens, UniProt P25440).
T1 construct: the second as compared with the first bromodomain of these BRDs
The data set is described as follows: Protein stability shift assay (thermal shift), BRD2(1). Type of data set: binding. The note with it: 10 μM ligand.

In another data set the target is T2, BRD2(2) (Homo sapiens, UniProt P25440).
T2 construct: the second as compared with the first bromodomain of these BRDs
T2 sequence (P25440 344-453 limits assumed): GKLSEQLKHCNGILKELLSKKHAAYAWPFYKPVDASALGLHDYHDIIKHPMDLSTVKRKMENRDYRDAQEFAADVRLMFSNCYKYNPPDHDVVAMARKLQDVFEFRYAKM
In words: Protein stability shift assay (thermal shift), BRD2(2). Conditions: 10 μM ligand. It is filed as binding.

In another data set the target is T3, BRD3(1) (Homo sapiens, UniProt Q15059).
T3 construct: the second as compared with the first bromodomain of these BRDs
T3 sequence (Q15059 34-140 limits assumed): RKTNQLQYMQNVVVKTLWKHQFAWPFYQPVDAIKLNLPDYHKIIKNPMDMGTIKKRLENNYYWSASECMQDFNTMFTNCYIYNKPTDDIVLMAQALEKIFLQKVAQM
In words: Protein stability shift assay (thermal shift), BRD3(1). The note with it: 10 μM ligand. It is filed as binding.

The next data set has as its target T4, BRD4(2) (Homo sapiens, UniProt O60885).
T4 construct: the second as compared with the first bromodomain of these BRDs
In words: Protein stability shift assay (thermal shift), BRD4(2). Type of data set: binding. Conditions: 10 μM ligand.

The target in the next data set is T5, BRDT(1) (Homo sapiens, UniProt Q58F21).
T5 construct: the second as compared with the first bromodomain of these BRDs
In words: Protein stability shift assay (thermal shift), BRDT(1). Type of data set: binding. The note with it: 10 μM ligand.

The target of the next data set is T6, BRDT(2) (Homo sapiens, UniProt Q58F21).
T6 construct: the second as compared with the first bromodomain of these BRDs
In words: Protein stability shift assay (thermal shift), BRDT(2). It is filed as binding. Conditions: 10 μM ligand.

In the next data set the target is T7, BAZ2B (Homo sapiens, UniProt Q9UIF8).
T7 construct: Thermal shift (Δtm^obs) of human bromodomains in the presence of 10 μM compound
T7 sequence (Q9UIF8 2060-2164 limits assumed): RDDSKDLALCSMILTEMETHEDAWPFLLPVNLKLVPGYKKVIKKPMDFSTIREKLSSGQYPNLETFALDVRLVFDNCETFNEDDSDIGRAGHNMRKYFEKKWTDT
The data set is described as follows: Protein stability shift assay (thermal shift), BAZ2B. Type of data set: binding. The note with it: 10 μM ligand.

For a further data set, the target named is T8, CREBBP (Homo sapiens, UniProt Q92793).
T8 construct: Thermal shift (Δtm^obs) of human bromodomains in the presence of 10 μM compound
T8 sequence (Q92793 1085-1192 limits assumed): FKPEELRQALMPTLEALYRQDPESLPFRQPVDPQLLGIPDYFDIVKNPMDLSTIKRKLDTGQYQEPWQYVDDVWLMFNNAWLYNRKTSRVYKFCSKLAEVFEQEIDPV
In words: Protein stability shift assay (thermal shift), CREBBP. Conditions: 10 μM ligand. Type of data set: binding.

For another data set, the target named is T9, PB1(5) (Homo sapiens, UniProt Q86U86).
T9 construct: Thermal shift (Δtm^obs) of human bromodomains in the presence of 10 μM compound
T9 sequence (Q86U86 653-763 limits assumed): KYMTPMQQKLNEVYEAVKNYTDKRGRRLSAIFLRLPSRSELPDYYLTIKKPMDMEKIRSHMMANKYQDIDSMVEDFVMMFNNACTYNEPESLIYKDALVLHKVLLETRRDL
In words: Protein stability shift assay (thermal shift), PB1(5). It is filed as binding. Conditions: 10 μM ligand.

The next data set has as its target T10, PCAF (Homo sapiens, UniProt Q92831).
T10 construct: Thermal shift (Δtm^obs) of human bromodomains in the presence of 10 μM compound
T10 sequence (Q92831 723-827 limits assumed): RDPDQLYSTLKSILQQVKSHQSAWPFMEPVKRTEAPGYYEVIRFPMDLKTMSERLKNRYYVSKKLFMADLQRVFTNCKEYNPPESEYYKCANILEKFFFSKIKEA
The data set is described as follows: Protein stability shift assay (thermal shift), PCAF. It is filed as binding. Conditions: 10 μM ligand.

Data set [2] relates to apoA-I production by primary human hepatocytes. The data set is described as follows: apoA-I production by primary human hepatocytes (ELISA). Conditions: cultured human hepatocytes, 72 hours, maximal stimulation. It is filed as cell-based.
Data set [3] concerns apoA-I production by Hep-G2 cells. The data set is described as follows: apoA-I production by HepG2 cells (ELISA). The note with it: result in words (Figure 5). It is filed as cell-based, human. The method, then: On the day of the experiment, supernatant medium was discarded and replaced by a solution of test compounds in HCM™ medium, which was prepared from DMSO stock solutions immediately before use. Stock solution concentrations assured that DMSO never exceeded 0.1% in the assay, as DMSO alone exerts significant effects on hepatocyte gene expression. Each concentration was run in triplicate whereas multiple wells were prepared for vehicle (DMSO) controls. The cells were cultured in the presence of the studied compounds and DMSO control for 72 hours at 37°C in 5% CO2 in air. The supernatants were replaced by a fresh dilution of test compounds after 24 hours and 48 hours, respectively. […]
After removal of the supernatants after 72 hours, all wells were washed 3 times with 200 μL isotonic 0.29 MD-mannitol and 25 μL d H2O was added to each well. The protein content of each well was determined using the Pierce® BCA Protein Assay Kit according to kit instructions and calculated as micrograms cellular protein per well.
For apoA-I detection, the human apoA1 ELISA kit from Mabtech Nacka, Sweden (Catalog no. 3710-1H-20) was used. […] Finally, the chromogenic substrate was added, and absorbance was measured at 450 nm.
The apoA-I content of each sample was calculated using the standard curve generated with each plate and was expressed as ng apoA-I per mg of cellular protein.
A general note: ELISA stands for enzyme-linked immunosorbent assay.

A further data set deals with central BZD receptor. The data set is described as follows: Binding to central BZD receptor, 3H-flunitrazepam, rat cerebral cortex membranes. The note with it: for competition with labeled flunitrazepam: rat brain membranes, result in words (Figure 3A).
For data set [4], the target named is T11, human recombinant PAF receptor (Homo sapiens, UniProt P25105).
T11 construct: expressed in transfected cells; host or cells: CHO cells
T11 sequence (P25105 whole entry): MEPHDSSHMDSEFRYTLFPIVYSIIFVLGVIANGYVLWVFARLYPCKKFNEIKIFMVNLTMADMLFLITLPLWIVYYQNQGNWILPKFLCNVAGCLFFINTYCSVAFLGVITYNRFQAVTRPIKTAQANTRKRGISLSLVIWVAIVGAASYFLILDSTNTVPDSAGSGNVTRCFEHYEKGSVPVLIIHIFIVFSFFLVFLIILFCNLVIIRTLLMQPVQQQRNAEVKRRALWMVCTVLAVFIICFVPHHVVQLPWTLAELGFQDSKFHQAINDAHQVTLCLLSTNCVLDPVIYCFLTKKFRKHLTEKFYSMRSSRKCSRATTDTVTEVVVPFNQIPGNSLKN
The data set is described as follows: Binding to PAF receptor, 3H-C16-PAF, CHO cells. The note with it: for competition with labeled PAF: cells expressing the human PAF receptor, result in words (Figure 3B).

Data set [5] is described as follows: Cytotoxicity: ATP level (Cell Titer Glo). Type of data set: cell-based, human. The note with it: 72 hours; for ATP level in human hepatocytes: result in words.
Data set [6] deals with fibrosarcoma cells (HT1080). The data set is described as follows: Cytotoxicity: mitochondrial membrane potential (TMRM). Conditions: for mitochondrial membrane potential in fibrosarcoma cells: 100 μM, result in words; for IC50: read-out: mitochondrial membrane potential in fibrosarcoma cells, IC50.
A further data set concerns the target BRD3(2) (Homo sapiens, UniProt Q15059). The data set is described as follows: Protein stability shift assay (thermal shift), BRD3(2). Details: the second as compared with the first bromodomain of these BRDs. It is filed as binding. The note with it: 10 μM ligand.
A further data set has as its target BRD4(1) (Homo sapiens, UniProt O60885). In words: Protein stability shift assay (thermal shift), BRD4(1). Details: the second as compared with the first bromodomain of these BRDs. The note with it: 10 μM ligand. It is filed as binding.
Data set [7] concerns fibrosarcoma cells (HT1080). The note with it: read-out: mitochondrial membrane potential, IC50, cited from earlier work.
Another data set has as its system apoA-I. The arrangement: method as in PMID 21449977. The note with it: mice transgenic for human apoA-I; cited from earlier work.

One may read the IC50 as the concentration that inhibits the measured activity by half.

Like-named read-outs stand apart in the source and are kept apart here.

T1 sequence (P25440 74-180 limits assumed): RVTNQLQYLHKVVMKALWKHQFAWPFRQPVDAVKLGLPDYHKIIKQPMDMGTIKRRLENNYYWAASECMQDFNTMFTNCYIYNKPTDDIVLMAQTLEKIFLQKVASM
BRD3(2), sequence (Q15059 306-415 limits assumed): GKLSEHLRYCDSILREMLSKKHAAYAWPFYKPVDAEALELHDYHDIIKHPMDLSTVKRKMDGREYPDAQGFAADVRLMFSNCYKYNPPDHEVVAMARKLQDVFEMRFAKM

As for `O=C(O)Cc1ccccc1Nc1c(Cl)cccc1Cl` [Diclofenac, reference compound], in data set [1], the amount remaining at 2 h, 10 μM turned out to be 70 ± 10%.
For the molecule `Cc1nnc2n1-c1sccc1C(c1ccc3c(c1)OCO3)=NC2` [MDCO-3783], the “Thermal shift (ΔTm obs) BRD2(1)” value on BRD2(1) is on record as 0.3. For the same molecule, the “Thermal shift (ΔTm obs) BRD2(2)” value on BRD2(2) is given as 1.8. In addition, the “Thermal shift (ΔTm obs) BRD3(1)” value at BRD3(1) came out at 1.8. Besides, at BRD4(2), the “Thermal shift (ΔTm obs) BRD4(2)” value is recorded as 1.9. The “Thermal shift (ΔTm obs) BRDT(1)” value on BRDT(1) is 0.3. Besides, on BRDT(2), the “Thermal shift (ΔTm obs) BRDT(2)” value came to 2.4. Further, on BAZ2B, the “Thermal shift (ΔTm obs) BAZ2B” value is 0.0. The “Thermal shift (ΔTm obs) CREBBP” value on CREBBP is reported as −0.1. In addition, on PB1(5), the “Thermal shift (ΔTm obs) PB1(5)” value was 0.0. Also, the “Thermal shift (ΔTm obs) PCAF” value at PCAF is 1.9. Also, the “stimulation of apoA-I production” value in data set [2] was “up to 3 fold”. In data set [3], the “effect on apoA-I production” value was “potency and efficacy comparable to that of (−)-JQ1”. The “competition with labeled flunitrazepam” value with central BZD receptor was “did not compete”. The “competition with labeled PAF” value in data set [4] was “only weakly displaced”. For the same molecule, in data set [1], the amount remaining at 2 h, 10 μM amounted to 97%. In data set [5] (100 μM), the “ATP level in human hepatocytes” value is listed as “no effect at 100 μM (n = 3)”. In data set [6] (72 hours), the “mitochondrial membrane potential in fibrosarcoma cells” value is “no effect at 100 μM (n = 5)”. Besides, the “Thermal shift (ΔTm obs) BRD3(2)” value on BRD3(2) amounted to 2.1. The “Thermal shift (ΔTm obs) BRD4(1)” value at BRD4(1) is recorded as 2.4.
For the molecule `CCCCCCCCCCCCCCCCOC[C@H](COP(=O)([O-])OCC[N+](C)(C)C)OC(C)=O` [C16-PAF, reference compound], in data set [4] (3H-C16-PAF, CHO cells expressing human recombinant PAF receptor, reference), the IC50 is 0.7 nM.
As for `COCc1c(C(C)C)nc(C(C)C)c(/C=C/[C@@H](O)C[C@@H](O)CC(=O)O)c1-c1ccc(F)cc1` [Cerivastatin], the “ATP level in human hepatocytes, reduction” value in data set [5] (20 μM) is 59 ± 10% reduction at 20 μM (n = 3). Also, the IC50 is 660 nM in data set [7] (ref CEREP Cytotoxicity Application Note); 1100 nM in data set [7] (ref CEREP study report 14547); 3000 nM in data set [7] (ref O’Brien et al. Arch toxicol. 2006;80:580–604); 2600 nM in data set [6] (Homo sapiens, HT-1080, 72 h).
For the molecule `CN1C(=O)CN=C(c2ccccc2)c2cc(Cl)ccc21` [Diazepam, reference compound], the 50% inhibitory concentration (IC50) at central BZD receptor (3H-flunitrazepam, rat cerebral cortex membranes, reference) stood at 20 nM.
For `Cc1nnc2n1-c1sccc1C(c1ccccc1)=NC2` [MDCO-3760], on BRD2(1), the “Thermal shift (ΔTm obs) BRD2(1)” value stood at 0.1. Besides, the “Thermal shift (ΔTm obs) BRD2(2)” value on BRD2(2) came out at 2.6. On BRD3(1), the “Thermal shift (ΔTm obs) BRD3(1)” value is reported as 1.9. The “Thermal shift (ΔTm obs) BRD4(2)” value on BRD4(2) came out at 2.8. Also, the “Thermal shift (ΔTm obs) BRDT(1)” value on BRDT(1) worked out at 0.4. The “Thermal shift (ΔTm obs) BRDT(2)” value at BRDT(2) amounted to 3.2. Moreover, the “Thermal shift (ΔTm obs) BAZ2B” value on BAZ2B is 0.1. Further, the “Thermal shift (ΔTm obs) CREBBP” value on CREBBP is listed as −0.1. For the same molecule, at PB1(5), the “Thermal shift (ΔTm obs) PB1(5)” value was −4.7. Moreover, the “Thermal shift (ΔTm obs) PCAF” value on PCAF was determined as 2.2. Besides, the “stimulation of apoA-I production” value in [2] was “up to 3 fold”. In addition, the “competition with labeled flunitrazepam” value in the data set on central BZD receptor is “able to compete”. The “competition with labeled PAF” value in [4] is given as “able to compete”. Moreover, in data set [1], the amount remaining at 2 h, 10 μM is 105%. For the same molecule, the “ATP level in human hepatocytes” value in data set [5] (100 μM) is listed as “no effect at 100 μM (n = 3)”. Besides, the “plasma levels of apoA-I” value in the data set with apoA-I was “increased”. The “mitochondrial membrane potential in fibrosarcoma cells” value in data set [6] (72 hours) is on record as “no effect at 100 μM (n = 5)”. The “Thermal shift (ΔTm obs) BRD3(2)” value on BRD3(2) is 3.0. Besides, the “Thermal shift (ΔTm obs) BRD4(1)” value at BRD4(1) is listed as 2.7.
In the case of `N#CC(C#N)=NNc1ccc(OC(F)(F)F)cc1` [FCCP, reference compound], the “ATP level in human hepatocytes, reduction” value in data set [5] (100 μM) was 96 ± 0.7% reduction at 100 μM (n = 2). In addition, the concentration for half-maximal inhibition (IC50) in [6] (72 hours) was determined as 17000 nM.
Regarding `C[C@]12CC[C@H]3[C@@H](CCC4=CC(=O)CC[C@@]43C)[C@@H]1CC[C@@H]2O` [Testosterone, reference compound], the share remaining at 2 h, 10 μM in data set [1] was found to be 64%.
As to `Cc1sc2c(c1C)C(c1ccc(Cl)cc1)=NC(CC(=O)OC(C)(C)C)c1nnc(C)n1-2` (single isomer, unassigned; (+)) [(+)-JQ1, reference compound], in data set [3], the “effect on apoA-I production” value is “very effective stimulator of apoA-I production”.
